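GI50 marks 50% less growth. The concentration for full growth arrest is given as TGI.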
What was measured:
Assay in all cases: NCI tumour cell line growth inhibition, 384-well format
A549 NSCLC = tested on: A549 NSCLC
CAKI-1 renal = tested on: CAKI-1 renal
CCRF-CEM leukemia = tested on: CCRF-CEM leukemia
DU-145 prostate = tested on: DU-145 prostate
EKVX NSCLC = tested on: EKVX NSCLC
HCC-2998 colon = tested on: HCC-2998 colon
HCT-116 colon = tested on: HCT-116 colon
HL-60(TB) leukemia = tested on: HL-60(TB) leukemia
HOP-62 NSCLC = tested on: HOP-62 NSCLC
HOP-92 NSCLC = tested on: HOP-92 NSCLC
HS 578T breast = tested on: HS 578T breast
HT29 colon = tested on: HT29 colon
IGROV1 ovarian = tested on: IGROV1 ovarian
K-562 leukemia = tested on: K-562 leukemia
KM12 colon = tested on: KM12 colon
M14 melanoma = tested on: M14 melanoma
MALME-3M melanoma = tested on: MALME-3M melanoma
MCF7 breast = tested on: MCF7 breast
MDA-MB-231 breast = tested on: MDA-MB-231 breast
MDA-MB-435 melanoma = tested on: MDA-MB-435 melanoma
NCI-H23 lung = tested on: NCI-H23 lung
NCI-H322M lung = tested on: NCI-H322M lung
NCI-H522 lung = tested on: NCI-H522 lung
NCI/ADR-RES ovarian = tested on: NCI/ADR-RES ovarian
OVCAR-3 ovarian = tested on: OVCAR-3 ovarian
OVCAR-4 ovarian = tested on: OVCAR-4 ovarian
OVCAR-5 ovarian = tested on: OVCAR-5 ovarian
OVCAR-8 ovarian = tested on: OVCAR-8 ovarian
PC-3 prostate = tested on: PC-3 prostate
RPMI-8226 leukemia = tested on: RPMI-8226 leukemia
RXF 393 renal = tested on: RXF 393 renal
SF-268 CNS = tested on: SF-268 CNS
SF-295 CNS = tested on: SF-295 CNS
SF-539 CNS = tested on: SF-539 CNS
SK-MEL-2 melanoma = tested on: SK-MEL-2 melanoma
SK-MEL-28 melanoma = tested on: SK-MEL-28 melanoma
SK-MEL-5 melanoma = tested on: SK-MEL-5 melanoma
SK-OV-3 ovarian = tested on: SK-OV-3 ovarian
SN12C renal = tested on: SN12C renal
SNB-75 CNS = tested on: SNB-75 CNS
SR leukemia = tested on: SR leukemia
SW-620 colon = tested on: SW-620 colon
T-47D breast = tested on: T-47D breast
TK-10 renal = tested on: TK-10 renal
UACC-257 melanoma = tested on: UACC-257 melanoma
UACC-62 melanoma = tested on: UACC-62 melanoma
UO-31 renal = tested on: UO-31 renal

SMILES: C[C@@H]1Cc2c(ccc3[nH]ncc23)[C@@H](c2ccc(NC3CN(CCCF)C3)cn2)N1CC(F)(F)F
- GI50 (A549 NSCLC): 27.5 µM
- TGI (A549 NSCLC): 77.6 µM
- GI50 (CAKI-1 renal): 13.7 µM
- TGI (CAKI-1 renal): 26.7 µM
- GI50 (CCRF-CEM leukemia): 5.58 µM
- TGI (CCRF-CEM leukemia): 17.4 µM
- GI50 (DU-145 prostate): 18.5 µM
- TGI (DU-145 prostate): 37.7 µM
- GI50 (EKVX NSCLC): 13.8 µM
- TGI (EKVX NSCLC): 27.7 µM
- GI50 (HCC-2998 colon): 13.8 µM
- TGI (HCC-2998 colon): 26.8 µM
- GI50 (HCT-116 colon): 13.3 µM
- TGI (HCT-116 colon): 26.2 µM
- GI50 (HL-60(TB) leukemia): 13.5 µM
- TGI (HL-60(TB) leukemia): 26.4 µM
- GI50 (HOP-62 NSCLC): 17.6 µM
- TGI (HOP-62 NSCLC): 31.4 µM
- GI50 (HOP-92 NSCLC): 13 µM
- TGI (HOP-92 NSCLC): 25.7 µM
- GI50 (HS 578T breast): 13 µM
- TGI (HS 578T breast): 25.7 µM
- GI50 (HT29 colon): 14.6 µM
- TGI (HT29 colon): 27.9 µM
- GI50 (IGROV1 ovarian): 14.8 µM
- TGI (IGROV1 ovarian): 30.1 µM
- GI50 (K-562 leukemia): 14.2 µM
- TGI (K-562 leukemia): 27.5 µM
- GI50 (KM12 colon): 15.8 µM
- TGI (KM12 colon): 29.8 µM
- GI50 (M14 melanoma): 16.3 µM
- TGI (M14 melanoma): 29.9 µM
- GI50 (MALME-3M melanoma): 13.8 µM
- TGI (MALME-3M melanoma): 26.7 µM
- GI50 (MCF7 breast): < 0.01 µM
- TGI (MCF7 breast): 13.5 µM
- GI50 (MDA-MB-231 breast): 14.2 µM
- TGI (MDA-MB-231 breast): 28.7 µM
- GI50 (MDA-MB-435 melanoma): 16.8 µM
- TGI (MDA-MB-435 melanoma): 30.6 µM
- GI50 (NCI-H23 lung): 11.7 µM
- TGI (NCI-H23 lung): 24.3 µM
- GI50 (NCI-H322M lung): 16.4 µM
- TGI (NCI-H322M lung): 30.9 µM
- GI50 (NCI-H522 lung): 11.9 µM
- TGI (NCI-H522 lung): 24.3 µM
- GI50 (NCI/ADR-RES ovarian): 23.5 µM
- TGI (NCI/ADR-RES ovarian): 62.6 µM
- GI50 (OVCAR-3 ovarian): 14.5 µM
- TGI (OVCAR-3 ovarian): 27.7 µM
- GI50 (OVCAR-4 ovarian): 19.3 µM
- TGI (OVCAR-4 ovarian): 35.7 µM
- GI50 (OVCAR-5 ovarian): 16 µM
- TGI (OVCAR-5 ovarian): 30.7 µM
- GI50 (OVCAR-8 ovarian): 15.4 µM
- TGI (OVCAR-8 ovarian): 28.9 µM
- GI50 (PC-3 prostate): 14.9 µM
- TGI (PC-3 prostate): 28.6 µM
- GI50 (RPMI-8226 leukemia): 6.32 µM
- TGI (RPMI-8226 leukemia): 19.3 µM
- GI50 (RXF 393 renal): 4.54 µM
- TGI (RXF 393 renal): 16.1 µM
- GI50 (SF-268 CNS): 16.5 µM
- TGI (SF-268 CNS): 30.3 µM
- GI50 (SF-295 CNS): 17.7 µM
- TGI (SF-295 CNS): 31.6 µM
- GI50 (SF-539 CNS): 16.7 µM
- TGI (SF-539 CNS): 30.4 µM
- GI50 (SK-MEL-2 melanoma): 15.8 µM
- TGI (SK-MEL-2 melanoma): 29.2 µM
- GI50 (SK-MEL-28 melanoma): 16.1 µM
- TGI (SK-MEL-28 melanoma): 29.7 µM
- GI50 (SK-MEL-5 melanoma): 14.8 µM
- TGI (SK-MEL-5 melanoma): 28 µM
- GI50 (SK-OV-3 ovarian): 17.5 µM
- TGI (SK-OV-3 ovarian): 31.4 µM
- GI50 (SN12C renal): 15.9 µM
- TGI (SN12C renal): 30.5 µM
- GI50 (SNB-75 CNS): 17.6 µM
- TGI (SNB-75 CNS): 31.4 µM
- GI50 (SR leukemia): 2.18 µM
- TGI (SR leukemia): 4.92 µM
- GI50 (SW-620 colon): 16.6 µM
- TGI (SW-620 colon): 30.4 µM
- GI50 (T-47D breast): 10.9 µM
- TGI (T-47D breast): 22.9 µM
- GI50 (TK-10 renal): 16.6 µM
- TGI (TK-10 renal): 30.5 µM
- GI50 (UACC-257 melanoma): 13.9 µM
- TGI (UACC-257 melanoma): 26.9 µM
- GI50 (UACC-62 melanoma): 13.8 µM
- TGI (UACC-62 melanoma): 26.8 µM
- GI50 (UO-31 renal): 17.6 µM
- TGI (UO-31 renal): 31.5 µM

Source: PubChem BioAssay (NCI)
